Measurements taken from patent publication US20140113898A1, “BISARYLSULFONE AND DIALKYLARYLSULFONE COMPOUNDS AS CALCIUM CHANNEL BLOCKERS” (Zalicus Pharmaceuticals Ltd., priority 2010, published 2014).

What follows are compounds tested against T1, CaV2.2 (Homo sapiens, UniProt Q00975) (assay: High-throughput CaV2.2/Kir2.3 FLIPR fluorescent assay). Conditions: Table 4; Fluo-4 FLIPR; closed or inactivated state not stated; read-out: FLIPR data CaV2.2.
T1 construct: expressed in transfected cells; host or cells: unnamed doxycycline-inducible cell line
T1 sequence (Q00975 whole entry): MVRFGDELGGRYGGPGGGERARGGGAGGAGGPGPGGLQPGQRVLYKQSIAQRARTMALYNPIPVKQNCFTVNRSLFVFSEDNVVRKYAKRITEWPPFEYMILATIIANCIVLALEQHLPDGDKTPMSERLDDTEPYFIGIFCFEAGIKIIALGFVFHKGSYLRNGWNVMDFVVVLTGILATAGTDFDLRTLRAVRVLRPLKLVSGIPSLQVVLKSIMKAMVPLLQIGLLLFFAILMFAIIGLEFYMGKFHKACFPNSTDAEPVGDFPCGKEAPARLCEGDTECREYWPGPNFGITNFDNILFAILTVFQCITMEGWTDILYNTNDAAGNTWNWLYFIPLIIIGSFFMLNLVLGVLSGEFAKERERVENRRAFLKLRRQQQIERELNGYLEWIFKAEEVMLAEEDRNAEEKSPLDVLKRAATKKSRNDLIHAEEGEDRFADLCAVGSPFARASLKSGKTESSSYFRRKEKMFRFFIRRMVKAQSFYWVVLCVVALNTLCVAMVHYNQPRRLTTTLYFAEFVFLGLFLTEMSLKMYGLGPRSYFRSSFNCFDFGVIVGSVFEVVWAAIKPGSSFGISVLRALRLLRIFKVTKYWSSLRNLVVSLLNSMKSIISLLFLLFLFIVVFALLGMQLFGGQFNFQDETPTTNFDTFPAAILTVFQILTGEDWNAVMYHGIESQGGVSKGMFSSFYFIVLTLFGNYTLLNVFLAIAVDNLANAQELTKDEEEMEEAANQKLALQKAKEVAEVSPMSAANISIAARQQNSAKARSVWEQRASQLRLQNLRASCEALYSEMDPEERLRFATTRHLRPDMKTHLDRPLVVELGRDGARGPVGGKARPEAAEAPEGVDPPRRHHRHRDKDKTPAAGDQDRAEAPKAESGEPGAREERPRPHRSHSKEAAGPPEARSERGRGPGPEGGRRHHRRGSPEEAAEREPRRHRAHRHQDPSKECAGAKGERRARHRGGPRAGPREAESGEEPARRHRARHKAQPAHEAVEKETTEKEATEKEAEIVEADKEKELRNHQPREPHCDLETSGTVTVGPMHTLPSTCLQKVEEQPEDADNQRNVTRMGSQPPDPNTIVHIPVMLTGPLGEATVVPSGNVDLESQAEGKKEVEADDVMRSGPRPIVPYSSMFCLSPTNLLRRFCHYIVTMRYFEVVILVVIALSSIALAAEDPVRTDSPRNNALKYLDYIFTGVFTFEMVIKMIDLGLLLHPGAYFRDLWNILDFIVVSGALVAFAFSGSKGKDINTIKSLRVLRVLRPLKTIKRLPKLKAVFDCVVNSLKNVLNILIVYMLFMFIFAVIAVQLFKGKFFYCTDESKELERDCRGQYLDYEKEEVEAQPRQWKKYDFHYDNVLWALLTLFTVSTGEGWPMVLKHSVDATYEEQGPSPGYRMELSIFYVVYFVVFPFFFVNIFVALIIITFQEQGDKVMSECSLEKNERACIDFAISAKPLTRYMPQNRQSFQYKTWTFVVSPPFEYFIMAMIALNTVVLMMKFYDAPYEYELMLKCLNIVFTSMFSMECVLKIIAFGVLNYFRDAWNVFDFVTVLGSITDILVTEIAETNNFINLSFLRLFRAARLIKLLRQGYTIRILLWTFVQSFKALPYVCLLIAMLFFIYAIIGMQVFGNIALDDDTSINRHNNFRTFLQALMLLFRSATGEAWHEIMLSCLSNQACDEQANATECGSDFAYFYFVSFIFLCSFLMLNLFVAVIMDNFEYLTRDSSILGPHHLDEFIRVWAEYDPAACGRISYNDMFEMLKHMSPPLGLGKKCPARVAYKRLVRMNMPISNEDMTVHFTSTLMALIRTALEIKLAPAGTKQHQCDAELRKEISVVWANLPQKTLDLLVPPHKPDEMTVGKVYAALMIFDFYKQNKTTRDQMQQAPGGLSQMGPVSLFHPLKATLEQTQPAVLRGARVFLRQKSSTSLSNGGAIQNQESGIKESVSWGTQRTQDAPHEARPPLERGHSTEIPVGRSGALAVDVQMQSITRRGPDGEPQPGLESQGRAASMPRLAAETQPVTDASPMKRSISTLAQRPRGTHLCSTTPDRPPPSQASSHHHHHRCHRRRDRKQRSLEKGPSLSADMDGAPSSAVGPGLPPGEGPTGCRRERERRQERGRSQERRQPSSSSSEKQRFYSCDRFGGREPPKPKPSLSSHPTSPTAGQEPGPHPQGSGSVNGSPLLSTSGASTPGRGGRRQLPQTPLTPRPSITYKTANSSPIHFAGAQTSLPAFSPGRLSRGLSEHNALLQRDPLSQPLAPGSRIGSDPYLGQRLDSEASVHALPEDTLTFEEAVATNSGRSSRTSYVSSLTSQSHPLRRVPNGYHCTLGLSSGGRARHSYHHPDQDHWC
T1 sequence (P54284 whole entry partner): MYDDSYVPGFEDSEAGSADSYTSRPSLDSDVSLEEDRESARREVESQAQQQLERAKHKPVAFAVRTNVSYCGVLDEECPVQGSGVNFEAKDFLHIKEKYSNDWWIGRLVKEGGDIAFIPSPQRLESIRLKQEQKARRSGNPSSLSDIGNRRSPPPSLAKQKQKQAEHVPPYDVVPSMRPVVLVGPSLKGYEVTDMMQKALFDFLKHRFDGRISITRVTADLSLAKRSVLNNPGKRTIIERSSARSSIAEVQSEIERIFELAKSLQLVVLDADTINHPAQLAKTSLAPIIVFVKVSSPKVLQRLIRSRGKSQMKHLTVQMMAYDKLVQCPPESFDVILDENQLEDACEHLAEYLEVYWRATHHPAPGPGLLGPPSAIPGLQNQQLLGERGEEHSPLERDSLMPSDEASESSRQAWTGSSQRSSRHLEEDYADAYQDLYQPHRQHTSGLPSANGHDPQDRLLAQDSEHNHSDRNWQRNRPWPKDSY
T1 sequence (P54289 25-946 partner limits assumed): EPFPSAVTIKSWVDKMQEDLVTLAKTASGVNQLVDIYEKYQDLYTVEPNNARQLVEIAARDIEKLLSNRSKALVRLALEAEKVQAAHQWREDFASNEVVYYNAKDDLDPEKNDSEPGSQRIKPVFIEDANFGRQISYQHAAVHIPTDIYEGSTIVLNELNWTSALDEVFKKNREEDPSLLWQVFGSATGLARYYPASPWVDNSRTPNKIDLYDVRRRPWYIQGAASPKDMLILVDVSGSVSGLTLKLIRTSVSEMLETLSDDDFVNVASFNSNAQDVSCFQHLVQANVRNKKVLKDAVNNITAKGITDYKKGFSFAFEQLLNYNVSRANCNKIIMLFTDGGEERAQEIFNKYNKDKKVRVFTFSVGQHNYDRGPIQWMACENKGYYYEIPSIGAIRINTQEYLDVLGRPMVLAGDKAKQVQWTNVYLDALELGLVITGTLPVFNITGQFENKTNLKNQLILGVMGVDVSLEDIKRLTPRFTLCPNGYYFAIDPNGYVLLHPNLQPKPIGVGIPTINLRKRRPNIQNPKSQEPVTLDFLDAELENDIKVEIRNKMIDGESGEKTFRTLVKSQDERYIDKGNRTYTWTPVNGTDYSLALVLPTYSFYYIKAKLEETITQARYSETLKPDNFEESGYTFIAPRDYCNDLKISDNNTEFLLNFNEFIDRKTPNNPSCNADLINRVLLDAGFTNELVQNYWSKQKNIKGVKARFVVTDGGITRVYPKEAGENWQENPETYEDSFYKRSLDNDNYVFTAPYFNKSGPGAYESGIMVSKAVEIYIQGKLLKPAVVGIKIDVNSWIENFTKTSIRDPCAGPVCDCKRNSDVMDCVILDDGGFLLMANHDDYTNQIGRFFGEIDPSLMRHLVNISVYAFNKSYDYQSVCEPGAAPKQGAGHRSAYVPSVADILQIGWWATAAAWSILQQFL
T1 sequence (P54289 947-1103 partner limits assumed): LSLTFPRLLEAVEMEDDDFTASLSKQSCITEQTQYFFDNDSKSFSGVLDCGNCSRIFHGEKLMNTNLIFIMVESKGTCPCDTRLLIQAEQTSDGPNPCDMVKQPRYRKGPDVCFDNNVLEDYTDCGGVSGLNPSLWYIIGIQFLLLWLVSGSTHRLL
Assay type: cell-based
Experimental: Cells were plated in 384-well, clear-bottom, black-walled, poly-D-lysine coated plates (Becton Dickinson, Franklin Lake, N.J.) 2 days prior to use in the FLIPR assay. 100 μL of cells (1.4×10^6 cell/mL) containing doxycyline (Sigma-Aldrich, 1.5 μg/mL; to induce channel expression) were added to each well using a Multidrop (Thermo Scientific, Waltham, Mass.) and were maintained in 5% CO2 incubator at 37° C. On the morning of the assay, cells were transferred to a 5% CO2 incubator at 29° C.
Cells were washed with a wash buffer containing (in mM): 118 NaCl, 18.4 HEPES, 11.7 D-glucose, 2 CaCl2, 0.5 MgSO4, 4.7 KCl, 1.2 KH2PO4, pH adjusted to 7.2 with NaOH. 4.4 μM of the fluorescent indicator dye, Fluo-4 (Invitrogen), prepared in pluronic acid (Sigma-Aldrich), was loaded into the wells and incubated for 45 minutes at 29° C. in 5% CO2. Cells were then rinsed with either a 2 mM KCl closed-state buffer (in mM: 138.5 NaCl, 10 HEPES, 10 D-glucose, 1 CaCl2, and 2 KCl, with the pH adjusted to 7.4 with NaOH) when performing the closed-state assay or 12.5 mM KCl inactivated-state buffer (in mM: 128 NaCl, 10 HEPES, 10 D-glucose, 1 CaCl2, and 12.5 mM KCl, with the pH adjusted to 7.4 with NaOH) when performing the inactivated-state assay.
Calcium entry was evoked with an addition of 130 mM KCl stimulation buffer (in mM: 10.5 NaCl, 10 HEPES, 10 D-glucose, 1 CaCl2, and 130 KCl, with the pH adjusted to 7.4 with NaOH) for both the closed-state or inactivated-state assay. A change in the Fluo-4 fluorescence signal was assessed using FLIPR^TETRA™ instrument (Molecular Devices, Sunnyvale, Calif.) for 3 minutes following the elevation of extracellular KCl using an illumination wavelength of 470-495 nm with emissions recorded at 515-575 nm.
Concentration-dependent response curves were obtained by comparing the fluorescence signal in the presence of compound and fitted with a logistic function (1) to obtain the concentration that inhibited 50% (IC50) of the RLU signal using OriginPro v.7.5 software (OriginLab, Northampton, Mass.).
To assess the quality of the FLIPR assays the Z-factor (2) was used to quantify the suitability of the assay conditions using the following equation: […]
Data are expressed as mean and standard deviation (SD).

| IC50 [µM] | SMILES |
| --- | --- |
| 2.36 | O=C(NCc1ccc(S(=O)(=O)c2cccc(C(F)(F)F)c2)cc1)[C@@H]1C[C@@H](O)CN1 [Compound 74, (2S,4R)-4-hydroxy-N-(4-((3-(trifluoromethyl)phenyl)sulfonyl)benzyl)pyrrolidine-2-carboxamide] |
| 5.85 | O=C(NCc1ccc(S(=O)(=O)c2cccc(C(F)(F)F)c2)cn1)[C@H]1C[C@@H](O)CN1 [Compound 106, (2R,4R)-4-hydroxy-N-((5-((3-(trifluoromethyl)phenyl)sulfonyl)pyridin-2-yl)methyl)pyrrolidine-2-carboxamide] |
| 7 | CS(=O)(=O)c1nc(C(F)(F)F)ccc1C(=O)NCc1ccccc1S(=O)(=O)c1cccc(C(F)(F)F)c1 [Compound 40] |
| 1.92 | O=C(NCc1ccc(S(=O)(=O)c2cccc(C(F)(F)F)c2)cc1)[C@@H]1CCCN1 [Compound 73, (S)-N-(4-((3-(trifluoromethyl)phenyl)sulfonyl)benzyl)pyrrolidine-2-carboxamide] |
| 1.32 | O=C(NCc1ccc(S(=O)(=O)c2cccc(C(F)(F)F)c2)cn1)c1ccnn1CC(F)(F)F [Compound 100, 1-(2,2,2-trifluoroethyl)-N-((5-((3-(trifluoromethyl)phenyl)sulfonyl)pyridin-2-yl)methyl)-1H-pyrazole-5-carboxamide] |
| 9.14 | O=C(NCc1ccccc1S(=O)(=O)c1cccc(C(F)(F)F)c1)[C@@H]1C[C@@H](F)CN1 [Compound 69, (2S,4R)-4-fluoro-N-(2-((3-(trifluoromethyl)phenyl)sulfonyl)benzyl)pyrrolidine-2-carboxamide] |
| 3.75 | O=C(NCc1ccccc1S(=O)(=O)c1cccc(C(F)(F)F)c1)[C@H]1CCCN1 [Compound 78, (R)-N-(2-((3-(trifluoromethyl)phenyl)sulfonyl)benzyl)pyrrolidine-2-carboxamide] |
| 1.12 | O=C(NCc1ccccc1S(=O)(=O)c1cccc(C(F)(F)F)c1)c1ccc(C(F)(F)F)nc1 [Compound 38] |
| 4.74 | O=C(NCc1ccc(S(=O)(=O)c2cccc(C(F)(F)F)c2)cc1)[C@@H]1C[C@H](F)CN1 [Compound 70, (2S,4S)-4-fluoro-N-(4-((3-(trifluoromethyl)phenyl)sulfonyl)benzyl)pyrrolidine-2-carboxamide] |
| 2.6 | O=C(NCc1ccc(S(=O)(=O)c2cccc(C(F)(F)F)c2)cn1)[C@H]1CCCN1 [Compound 108, (R)-N-((5-((3-(trifluoromethyl)phenyl)sulfonyl)pyridin-2-yl)methyl)pyrrolidine-2-carboxamide] |
| 0.62 | CO[C@H]1CN[C@@H](C(=O)NCc2ccc(S(=O)(=O)c3cccc(C(F)(F)F)c3)cc2)C1 [Compound 62, (2R,4R)-4-methoxy-N-(4-((3-(trifluoromethyl)phenyl)sulfonyl)benzyl)pyrrolidine-2-carboxamide] |
| 1.41 | O=C(NCc1ccc(S(=O)(=O)c2cccc(C(F)(F)F)c2)cn1)c1ccnc(C(F)(F)F)c1 [Compound 102, 2-(trifluoromethyl)-N-((5-((3-(trifluoromethyl)phenyl)sulfonyl)pyridin-2-yl)methyl)isonicotinamide] |

Same assay, conditions: Table 5; Fluo-4 FLIPR; closed or inactivated state not stated; read-out: FLIPR data CaV2.2

| SMILES | IC50 [µM] |
| --- | --- |
| Cc1ccc(C(=O)NCC(C)(C)S(=O)(=O)c2cccc(C(F)(F)F)c2)c(C)c1 [Compound 169, 2,4-dimethyl-N-(2-methyl-2-((3-(trifluoromethyl)phenyl)sulfonyl)propyl)benzamide] | 1.36 |
| Cc1cc(C(=O)NCC(C)(C)S(=O)(=O)c2cccc(C(F)(F)F)c2)cc(C)c1O [Compound 167, 4-hydroxy-3,5-dimethyl-N-(2-methyl-2-((3-(trifluoromethyl)phenyl)sulfonyl)propyl)benzamide] | 1.4 |
| CC(C)(CNC(=O)c1ccnc(Cl)c1)S(=O)(=O)c1cccc(C(F)(F)F)c1 [Compound 180, 2-chloro-N-(2-methyl-2-((3-(trifluoromethyl)phenyl)sulfonyl)propyl)isonicotinamide] | 3.96 |
| CC(C)(CNC(=O)c1ccc(S(C)(=O)=O)cc1)S(=O)(=O)c1cccc(C(F)(F)F)c1 [Compound 171, N-(2-methyl-2-((3-(trifluoromethyl)phenyl)sulfonyl)propyl)-4-(methylsulfonyl)benzamide] | 8.12 |
| CC(C)(NC(=O)CC(C)(C)S(=O)(=O)c1cccc(C(F)(F)F)c1)c1ccccc1 [Compound 152, 3-methyl-N-(2-phenylpropan-2-yl)-3-((3-(trifluoromethyl)phenyl)sulfonyl)butanamide] | 4.24 |
| CC(C)(CNC(=O)c1cnccc1C(F)(F)F)S(=O)(=O)c1cccc(C(F)(F)F)c1 [Compound 174, N-(2-methyl-2-((3-(trifluoromethyl)phenyl)sulfonyl)propyl)-4-(trifluoromethyl)nicotinamide] | 4.36 |

Results, then the compound that gave them:

| IC50 [µM] | SMILES |
| --- | --- |
| 1.68 | CC(C)(CCNC(=O)Cc1cccc(S(C)(=O)=O)c1)S(=O)(=O)c1cccc(C(F)(F)F)c1 [Compound 193, N-(3-methyl-3-((3-(trifluoromethyl)phenyl)sulfonyl)butyl)-2-(3-(methylsulfonyl)phenyl)acetamide] |
| 1.39 | CC(C)(CCNC(=O)C1(N)CCCCC1)S(=O)(=O)c1cccc(C(F)(F)F)c1 [Compound 207, 1-amino-N-(3-methyl-3-((3-(trifluoromethyl)phenyl)sulfonyl)butyl)cyclohexanecarboxamide] |
| 10 | CC(C)(CN1Cc2nc(C(F)(F)F)ccc2C1=O)S(=O)(=O)c1cccc(C(F)(F)F)c1 [Compound 182, 6-(2-methyl-2-((3-(trifluoromethyl)phenyl)sulfonyl)propyl)-2-(trifluoromethyl)-6,7-dihydro-5H-pyrrolo[3,4-b]pyridin-5-one] |
| 3.51 | CC(C)(CCNC(=O)[C@@H]1CCCCN1)S(=O)(=O)c1cccc(C(F)(F)F)c1 [Compound 196, (S)-N-(3-methyl-3-((3-(trifluoromethyl)phenyl)sulfonyl)butyl)piperidine-2-carboxamide] |
| 10 | CC(C)(CCNC(=O)C1(N)CCOCC1)S(=O)(=O)c1cccc(C(F)(F)F)c1 [Compound 197, 4-amino-N-(3-methyl-3-((3-(trifluoromethyl)phenyl)sulfonyl)butyl)tetrahydro-2H-pyran-4-carboxamide] |
| 3.43 | CC(C)(CCNC(=O)[C@H]1CCCN1)S(=O)(=O)c1cccc(C(F)(F)F)c1 [Compound 220, (R)-N-(3-methyl-3-((3-(trifluoromethyl)phenyl)sulfonyl)butyl)pyrrolidine-2-carboxamide] |
| 9.13 | CC(C)(CCNC(=O)C1(N)CCS(=O)(=O)CC1)S(=O)(=O)c1cccc(C(F)(F)F)c1 [Compound 198, 4-amino-N-(3-methyl-3-((3-(trifluoromethyl)phenyl)sulfonyl)butyl)tetrahydro-2H-thiopyran-4-carboxamide 1,1-dioxide] |
| 1.75 | CC(C)(CCNC(=O)[C@H]1CCCC[C@@H]1N)S(=O)(=O)c1cccc(C(F)(F)F)c1 [Compound 208, (1S,2S)-2-amino-N-(3-methyl-3-((3-(trifluoromethyl)phenyl)sulfonyl)butyl)cyclohexanecarboxamide] |
| 3.32 | Cc1c(C(=O)NCCC(C)(C)S(=O)(=O)c2cccc(C(F)(F)F)c2)sc2nc[nH]c(=O)c12 [Compound 210, 5-methyl-N-(3-methyl-3-((3-(trifluoromethyl)phenyl)sulfonyl)butyl)-4-oxo-3,4-dihydrothieno[2,3-d]pyrimidine-6-carboxamide] |
| 8.17 | CC(C)(CCNC(=O)[C@@H]1C[C@@H](O)CN1)S(=O)(=O)c1cccc(C(F)(F)F)c1 [Compound 217, (2S,4R)-4-hydroxy-N-(3-methyl-3-((3-(trifluoromethyl)phenyl)sulfonyl)butyl)pyrrolidine-2-carboxamide] |
| 1.42 | CC(C)(CCNC(=O)c1ccc(S(C)(=O)=O)cc1)S(=O)(=O)c1cccc(C(F)(F)F)c1 [Compound 191, N-(3-methyl-3-((3-(trifluoromethyl)phenyl)sulfonyl)butyl)-4-(methylsulfonyl)benzamide] |
| 1.05 | CC(C)(CCNC(=O)[C@H](N)c1ccccc1)S(=O)(=O)c1cccc(C(F)(F)F)c1 [Compound 200] |
| 1.36 | CC(C)(CCNC(=O)c1ccc(S(C)(=O)=O)cc1Cl)S(=O)(=O)c1cccc(C(F)(F)F)c1 [Compound 189, 2-chloro-N-(3-methyl-3-((3-(trifluoromethyl)phenyl)sulfonyl)butyl)-4-(methylsulfonyl)benzamide] |
